What was measured:
Endothelial lipase (EL) = target: T1, Endothelial lipase (EL) (Homo sapiens, UniProt Q9Y5X9); assay: Endothelial lipase (EL) enzymatic assay, fluorescent substrate A10070 in DMPG vesicles; type: biochemical; conditions: EL from conditioned media of HT-1080 cells; compound preincubated 30 min at 37° C; read-out: EL IC50
T1 construct: HT-1080 cells that were transformed using RAGE technology (Athersys) to overexpress endogenous EL; endogenous in cells; conditioned medium used
T1 sequence (Q9Y5X9 21-500): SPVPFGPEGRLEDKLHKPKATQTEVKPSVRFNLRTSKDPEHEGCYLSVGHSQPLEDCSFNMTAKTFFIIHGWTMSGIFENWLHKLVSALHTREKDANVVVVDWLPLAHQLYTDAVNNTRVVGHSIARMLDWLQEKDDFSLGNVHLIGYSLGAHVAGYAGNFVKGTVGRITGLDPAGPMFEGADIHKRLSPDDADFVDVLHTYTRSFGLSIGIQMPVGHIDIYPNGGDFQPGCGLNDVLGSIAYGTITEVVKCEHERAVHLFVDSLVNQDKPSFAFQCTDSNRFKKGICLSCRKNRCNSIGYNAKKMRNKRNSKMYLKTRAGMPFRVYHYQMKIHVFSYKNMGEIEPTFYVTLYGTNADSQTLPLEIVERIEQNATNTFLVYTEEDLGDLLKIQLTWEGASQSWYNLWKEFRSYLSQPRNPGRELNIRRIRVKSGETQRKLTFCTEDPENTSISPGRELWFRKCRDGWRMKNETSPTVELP
Procedure, shortened: (§1)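 Substrate A10070 sits in sonicated DMPG vesicles at 0.11 mole fraction. Lipase and compound preincubated 30 min, 37° C, in HEPES pH 8.0 buffer with CaCl2.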

hepatic lipase (HL) = target: T2, hepatic lipase (HL) (Homo sapiens, UniProt P11150); assay: Hepatic lipase (HL) enzymatic assay, fluorescent substrate A10070 in DMPG vesicles; type: biochemical; conditions: HL partially purified from conditioned media of COS cells; compound preincubated 30 min at 37° C; read-out: HL IC50
T2 construct: made in house; host or cells: COS cells (conditioned medium, partially purified)
T2 sequence (P11150 23-499): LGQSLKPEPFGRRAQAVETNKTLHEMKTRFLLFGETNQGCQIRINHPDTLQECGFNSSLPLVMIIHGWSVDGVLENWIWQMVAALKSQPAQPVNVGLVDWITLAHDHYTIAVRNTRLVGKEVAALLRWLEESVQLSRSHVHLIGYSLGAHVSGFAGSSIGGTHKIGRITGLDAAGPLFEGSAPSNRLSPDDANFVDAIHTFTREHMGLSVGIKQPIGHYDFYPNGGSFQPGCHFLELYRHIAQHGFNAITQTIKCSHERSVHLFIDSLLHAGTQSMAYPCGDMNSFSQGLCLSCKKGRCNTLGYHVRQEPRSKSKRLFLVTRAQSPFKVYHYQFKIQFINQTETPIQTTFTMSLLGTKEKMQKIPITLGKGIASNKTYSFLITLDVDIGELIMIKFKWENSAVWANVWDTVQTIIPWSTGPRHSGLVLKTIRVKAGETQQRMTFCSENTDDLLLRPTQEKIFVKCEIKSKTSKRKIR
Procedure, shortened: as §1

IC50 (Endothelial lipase (EL)) | IC50 (hepatic lipase (HL)) | SMILES
0.016 µM | 0.125 µM | CC1(Cc2nnc(C(c3nc4ccc(-c5cccc(C(=O)N6CC(F)C6)c5)cc4s3)S(C)(=O)=O)o2)NC(=O)NC1=O (stereo not drawn) [Example 206, 5-{[5-({6-[3-(3-fluoroazetidine-1-carbonyl)phenyl]-1,3-benzothiazol-2-yl} (methanesulfonyl)methyl)-1,3,4-oxadiazol-2-yl]methyl}-5-methyl-imidazolidine-2,4-dione]
0.022 µM | 0.37 µM | CC1(Cc2nnc(C(c3nc4ccc(-c5cccc(C(=O)N6CC[C@H](O)C6)c5)cc4s3)S(C)(=O)=O)o2)NC(=O)NC1=O (stereo partly drawn) [Example 207, 5-({5-[(6-{3-[(3S)-3-hydroxypyrrolidine-1-carbonyl]phenyl}-1,3-benzothiazol-2-yl) (methanesulfonyl)methyl]-1,3,4-oxadiazol-2-yl}methyl)-5-methyl-imidazolidine-2,4-dione]
0.177 µM | 0.131 µM | CC1(Cc2nnc(C(c3nc4ccc(-c5cccc(C(=O)N6CC(F)(F)C6)c5)cc4s3)S(C)(=O)=O)o2)NC(=O)NC1=O (stereo not drawn) [Example 208, 5-{[5-({6-[3-(3,3-difluoroazetidine-1-carbonyl)phenyl]-1,3-benzothiazol-2-yl} (methanesulfonyl)methyl)-1,3,4-oxadiazol-2-yl]methyl}-5-methyl-imidazolidine-2,4-dione]
0.018 µM | 0.227 µM | COC1CN(C(=O)c2cccc(-c3ccc4nc(C(c5nnc(CC6(C)NC(=O)NC6=O)o5)S(C)(=O)=O)sc4c3)c2)C1 (stereo not drawn) [Example 209, 5-({5-[methanesulfonyl({6-[3-(3-methoxyazetidine-1-carbonyl)phenyl]-1,3-benzothiazol-2-yl})methyl]-1,3,4-oxadiazol-2-yl}methyl)-5-methyl-imidazolidine-2,4-dione]
0.009 µM | 0.365 µM | CC1(Cc2nnc(C(c3nc4ccc(-c5cccc(C(=O)N6CCOCC6)c5)cc4s3)S(C)(=O)=O)o2)NC(=O)NC1=O (stereo not drawn) [Example 210, 5-({5-[methanesulfonyl({6-[3-(morpholine-4-carbonyl)phenyl]-1,3-benzothiazol-2-yl})methyl]-1,3,4-oxadiazol-2-yl}methyl)-5-methyl-imidazolidine-2,4-dione]
0.002 µM | 0.575 µM | CO[C@@H]1CCN(C(=O)c2cccc(-c3ccc4nc(C(c5nnc(CC6(C)NC(=O)NC6=O)o5)S(C)(=O)=O)sc4c3)c2)C1 (stereo partly drawn) [Example 211, 5-({5-[methanesulfonyl(6-{3-[(3R)-3-methoxy-pyrrolidine-1-carbonyl]phenyl}-1,3-benzothiazol-2-yl)methyl]-1,3,4-oxadiazol-2-yl}methyl)-5-methyl-imidazolidine-2,4-dione]
0.002 µM | 1.1 µM | CC1(Cc2nnc(C(c3nc4ccc(-c5cccc(C(=O)N6CCC(O)CC6)c5)cc4s3)S(C)(=O)=O)o2)NC(=O)NC1=O (stereo not drawn) [Example 212, 5-{[5-({6-[3-(4-hydroxypiperidine-1-carbonyl)phenyl]-1,3-benzothiazol-2-yl} (methanesulfonyl)methyl)-1,3,4-oxadiazol-2-yl]methyl}-5-methyl-imidazolidine-2,4-dione]
0.002 µM | 2.3 µM | CC1(Cc2nnc(C(c3nc4ccc(-c5cccc(C(=O)N6CC[C@@H](O)C6)c5)cc4s3)S(C)(=O)=O)o2)NC(=O)NC1=O (stereo partly drawn) [Example 219, 5-({5-[(6-{3-[(3R)-3-hydroxypyrrolidine-1-carbonyl]phenyl}-1,3-benzothiazol-2-yl) (methanesulfonyl)methyl]-1,3,4-oxadiazol-2-yl}methyl)-5-methyl-imidazolidine-2,4-dione]
0.008 µM | 0.162 µM | COC1(C)CN(C(=O)c2cccc(-c3ccc4nc(C(c5nnc(CC6(C)NC(=O)NC6=O)o5)S(C)(=O)=O)sc4c3)c2)C1 (stereo not drawn) [Example 222, 5-({5-[methanesulfonyl({6-[3-(3-methoxy-3-methyl-azetidine-1-carbonyl)phenyl]-1,3-benzothiazol-2-yl})methyl]-1,3,4-oxadiazol-2-yl}methyl)-5-methyl-imidazolidine-2,4-dione]
0.114 µM | 0.17 µM | CC1(Cc2nnc(C(c3nc4ccc(-c5cccc(C(=O)N6CC[C@H](F)C6)c5)cc4s3)S(C)(=O)=O)o2)NC(=O)NC1=O (stereo partly drawn) [Example 228, 5-({5-[(6-{3-[(3S)-3-fluoropyrrolidine-1-carbonyl]phenyl}-1,3-benzothiazol-2-yl) (methanesulfonyl)methyl]-1,3,4-oxadiazol-2-yl}methyl)-5-methyl-imidazolidine-2,4-dione]

Continued, molecule first:

SMILES | IC50 (Endothelial lipase (EL)) | IC50 (hepatic lipase (HL))
COCCNC(=O)c1cccc(-c2ccc3nc(C(c4nnc(CC5(C)NC(=O)NC5=O)o4)S(C)(=O)=O)sc3c2)c1 (stereo not drawn) [Example 205, 3-{2-[methanesulfonyl({5-[(4-methyl-2,5-dioxoimidazolidin-4-yl)methyl]-1,3,4-oxadiazol-2-yl})methyl]-1,3-benzothiazol-6-yl}-N-(2-methoxyethyl)benzamide] | 0.018 µM | 0.449 µM
CNC(=O)c1cccc(-c2ccc3nc(C(c4nnc(CC5(C)NC(=O)NC5=O)o4)S(C)(=O)=O)sc3c2)c1 (stereo not drawn) [Example 218, 3-{2-[methanesulfonyl({5-[(4-methyl-2,5-dioxoimidazolidin-4-yl)methyl]-1,3,4-oxadiazol-2-yl})methyl]-1,3-benzothiazol-6-yl}-N-methylbenzamide] | 0.01 µM | 0.262 µM
CN(C(=O)c1cccc(-c2ccc3nc(C(c4nnc(CC5(C)NC(=O)NC5=O)o4)S(C)(=O)=O)sc3c2)c1)C1CC1 (stereo not drawn) [Example 221, N-cyclopropyl-3-{2-[methanesulfonyl({5-[(4-methyl-2,5-dioxoimidazolidin-4-yl)methyl]-1,3,4-oxadiazol-2-yl})methyl]-1,3-benzothiazol-6-yl}-N-methylbenzamide] | 0.001 µM | 0.025 µM
CC1(Cc2nnc(C(c3nc4ccc(-c5cccc(C(=O)NC6CC(F)(F)C6)c5)cc4s3)S(C)(=O)=O)o2)NC(=O)NC1=O (stereo not drawn) [Example 223, N-(3,3-difluorocyclobutyl)-3-{2-[methanesulfonyl({5-[(4-methyl-2,5-dioxo-imidazolidin-4-yl)methyl]-1,3,4-oxadiazol-2-yl})methyl]-1,3-benzothiazol-6-yl} benzamide] | 0.032 µM | 0.055 µM
CC1(NC(=O)c2cccc(-c3ccc4nc(C(c5nnc(CC6(C)NC(=O)NC6=O)o5)S(C)(=O)=O)sc4c3)c2)CC1 (stereo not drawn) [Example 224, 3-{2-[methanesulfonyl({5-[(4-methyl-2,5-dioxo-imidazolidin-4-yl)methyl]-1,3,4-oxadiazol-2-yl})methyl]-1,3-benzothiazol-6-yl}-N-(1-methylcyclopropyl) benzamide] | 0.011 µM | 0.076 µM
CC1(Cc2nnc(C(c3nc4ccc(-c5cccc(C(=O)NC6CC6)c5)cc4s3)S(C)(=O)=O)o2)NC(=O)NC1=O (stereo not drawn) [Example 225, N-cyclopropyl-3-{2-[methanesulfonyl({5-[(4-methyl-2,5-dioxo-imidazolidin-4-yl)methyl]-1,3,4-oxadiazol-2-yl})methyl]-1,3-benzothiazol-6-yl}benzamide] | 0.005 µM | 0.051 µM
CC(C)CN(C)C(=O)c1cccc(-c2ccc3nc(C(c4nnc(CC5(C)NC(=O)NC5=O)o4)S(C)(=O)=O)sc3c2)c1 (stereo not drawn) [Example 226, 3-{2-[methanesulfonyl({5-[(4-methyl-2,5-dioxo-imidazolidin-4-yl)methyl]-1,3,4-oxadiazol-2-yl})methyl]-1,3-benzothiazol-6-yl}-N-methyl-N-(2-methylpropyl)benzamide] | 0.035 µM | 0.053 µM
COCCN(C)C(=O)c1cccc(-c2ccc3nc(C(c4nnc(CC5(C)NC(=O)NC5=O)o4)S(C)(=O)=O)sc3c2)c1 (stereo not drawn) [Example 227, 3-{2-[methanesulfonyl({5-[(4-methyl-2,5-dioxo-imidazolidin-4-yl)methyl]-1,3,4-oxadiazol-2-yl})methyl]-1,3-benzothiazol-6-yl}-N-(2-methoxyethyl)-N-methylbenzamide] | 0.038 µM | 0.356 µM
